SMILES strings stand for the structures.

The subject of the assay is AsDddY. Briefly: HPLC of acrylate, initial rates, nonlinear Michaelis-Menten fit. In kind it is biochemical, Acinetobacter sp. ZS25. To be noted: pH 8.0, 50 °C; 0.5 nM enzyme; DMSP 1-20 mM.

In general, Km refers to the substrate concentration at which the rate is half of its maximum. Turning to `C[S+](C)CCC(=O)[O-]` [DMSP, dimethylsulfoniopropionate], the Km worked out at 2600 µM.

The record behind these values is paper PMC12309256 (Current Research in Microbial Sciences, 2025).
